# Measured values published in patent publication US11714094B2, “Composition comprising prostacyclin andor analogues thereof for treatment of acute critically ill patients” (priority 2015, dated 2023).
# Where two headings read alike, the source gives them in different places.
# Tests used:
# [1] = tested on: functional whole blood hemostasis; test: Randomized placebo controlled trial of 24 hours i.v. Ilomedin in AMI PCI patients: Multiplate, TEG; format: in vivo, human; details: 0.5 ng/kg/min i.v. for 24 hours, during or after infusion
# Experimental: The inventors conducted a randomized placebo controlled double blind clinical trial investigating safety and efficacy of 24 hours i.v. Ilomedin® (iloprost, prostacyclin analog) infusion at a dose of 0.5 ng/kg/min compared to placebo in 17 patients with acute myocardial infarction (AMI) undergoing percutanuous coronary intervention (PCI) with stent implantation [Holmvang et al 2012]. Patients randomized to 24 hours active (n=9) or placebo (n=8) therapy were evaluated for hemodynamics, bleeding events and for functional whole blood hemostasis (Multiplate, TEG) and endothelial function in blood sampled before iloprost infusion (baseline), during infusion (1 h, 6 h and 24 h) and 24 hours after ceasing iloprost infusion (48 h).
# [2] = tested on: endothelial derived biomarkers; test: Randomized placebo controlled trial of 24 hours i.v. Ilomedin in AMI PCI patients: plasma endothelial derived biomarkers by ELISA; format: in vivo, human; details: 0.5 ng/kg/min i.v. for 24 hours, baseline to 48 h
# Experimental: (§1) Ilomedin® (iloprost, prostacyclin analog) infusion at a dose of 0.5 ng/kg/min compared to placebo in 17 patients with acute myocardial infarction (AMI) undergoing percutanuous coronary intervention (PCI) with stent implantation [Holmvang et al 2012]. Patients randomized to 24 hours active (n=9) or placebo (n=8) therapy were evaluated for hemodynamics, bleeding events and for functional whole blood hemostasis (Multiplate, TEG) and endothelial function in blood sampled before iloprost infusion (baseline), during infusion (1 h, 6 h and 24 h) and 24 hours after ceasing iloprost infusion (48 h). Bleeding was evaluated by GUSTO criteria (severe, moderate, mild, none) and hemostasis was evaluated by Multiplate and TEG according to the manufactures recommendations. Endothelial function was evaluated by measuring plasma levels of endothelial derived biomarkers by commercially available ELISA kits. Biomarkers indicating: Endothelial glycocalyx damage (syndecan-1), endothelial cell damage (thrombomodulin), endothelial cell activation (sE-selectin, ICAM-1) and anticoagulation (protein C) were investigated.
# [3] = tested on: functional whole blood hemostasis; test: Randomized placebo controlled trial of i.v. Ilomedin in Whipple surgery patients: TEG; format: in vivo, human
# Experimental: (§2) TEG was performed according to the manufactures recommendations. Endothelial function was evaluated by measuring plasma levels of endothelial derived biomarkers by commercially available ELISA kits. Biomarkers indicating: Endothelial glycocalyx damage (syndecan-1), endothelial cell damage (thrombomodulin) and necrosis (nucleosomes) were investigated.
# [4] = tested on: endothelial derived biomarkers; test: Randomized placebo controlled trial of i.v. Ilomedin in Whipple surgery patients: plasma endothelial derived biomarkers by ELISA; format: in vivo, human; details: 1 ng/kg/min i.v.
# Experimental: as §2
# [5] = Whipple surgery patients
# Experimental: The inventors conducted a randomized placebo controlled double blind clinical trial investigating safety and efficacy of intra- and post-operative i.v. Ilomedin® (iloprost, prostacyclin analog) infusion at a dose of 1 ng/kg/min compared to placebo in 16 patients undergoing whipple surgery at Rigshospitalet, a tertiary level teaching University hospital in Copenhagen, Denmark. The inclusion criteria were adults (age […]) undergoing whipple surgery based on surgical indication due to cancer/dysplasia, familial adenomatous polyposis or inflammation/pancreatitis.
# Data on demography, co-morbidities, surgical time and 28-day mortality were assessed. Hemodynamics were measured continuously (heart rate (HR), systolic, diastolic and mean arterial pressure (SBT, DBT, MAP)) or at baseline, end of surgery and 6 h and 24 h post-operative (systemic vascular resistance (SVR), stroke volume (SV), central venous pressure (CVP)). The volume and number of units of red blood cells (RBC), plasma and platelet concentrates administered were recorded at the end of surgery, 6 h and 24 h post-operative. Bleeding volume was assessed intra-operative and 6 h and 24 h post-operative. The volume of crystalloids and colloids (only albumin was allowed) was, together with urine output, recorded intra-operative and 6 h and 24 h post-operative.
# Blood samples for evaluation of functional whole blood hemostasis (TEG) and endothelial function were collected pre-commencing infusion with study drug (baseline), at the end of surgery (post-op) and 6 h after surgery just before ceasing study drug infusion (6 h). Blood samples for routine biochemistry (hemoglobin, creatinine and lactate) were collected at baseline, post-op and 6 h and 24 h post-operative.
# [6] = Randomized placebo controlled trial of 24 hours i.v. Ilomedin in AMI PCI patients: hemodynamics and bleeding events; format: in vivo, human; details: 0.5 ng/kg/min i.v. for 24 hours, during or after infusion
# Experimental: as §1
# [7] = tested on: endothelial derived biomarkers; test: Healthy volunteer study, 2 hours i.v. Ilomedin infusion: plasma endothelial derived biomarkers by ELISA; format: in vivo, human; details: 1 ng/kg/min i.v. for 2 hours
# Experimental: Blood samples for endothelial function were collected at the following time-points: Before the infusion (0 h), after 30 min infusion (30 min), immediately after ceasing the infusion (2 h) and 2 hours after the end of iloprost infusion. Endothelial function was evaluated by measuring plasma levels of endothelial derived biomarkers by commercially available ELISA kits. Biomarkers indicating: Endothelial glycocalyx damage (syndecan-1), endothelial cell damage (thrombomodulin) and endothelial cell anticoagulation (protein C) were investigated. Furthermore, we measured plasma concentration of prostacyclin (FIG. 3).
# whole blood hemostasis = test: Healthy volunteer study, 2 hours i.v. Flolan infusion: Multiplate and TEG; format: in vivo, human; details: eight healthy male volunteers; 4 ng/kg/min i.v. for 2 hours
# From the text: The term “thrombelastography” or “TEG” refers to a commercially available viscoelastic whole blood hemostasis assay employing citrated or non-anticoagulated blood. The TEG analyzer uses a small whole blood sample in a rotating cup and a pin suspended in the blood by a torsion wire, which is monitored for motion. To speed up the clot formation, a standardized amount of an activator of coagulation (e.g. kaolin, tissue factor) may be added to the cup just before the pin is placed in the cup. The TEG assay is suitable for determining important parameters in the clotting activity (clot initiation time, clot build up dynamics), clot strength (maximum amplitude (MA)) and clot degradation (fibrinolysis). The TEG system's approach to monitoring patient hemostasis is based on the premise that the end result of the hemostatic process is the clot. The clot's physical properties determine whether the patient will have normal hemostasis, or will be at increased risk for hemorrhage or thrombosis. The term “Multiplate” refers to a commercially available impedance aggregometry based whole blood platelet function analyzer employing anti-coagulated blood. The Multiplate analyzer uses a small whole blood sample in a chamber with two pairs of platinum electrodes. Standardized platelet agonists are added to the blood in the chamber to investigate specific platelet activation/signaling pathways. […]
# [8] = tested on: clot formation and platelet aggregation; test: Functional whole blood hemostatic assays (TEG, Multiplate) under low-dose prostacyclin infusion; format: in vivo, human
# From the text: However, as for the vasodilatory effect, the antiaggretory effect is highly dose-dependent [Moncada et al 1976; O'Grady et al 1980]. […] The term “thrombelastography” or “TEG” refers to a commercially available viscoelastic whole blood hemostasis assay employing citrated or non-anticoagulated blood. The TEG analyzer uses a small whole blood sample in a rotating cup and a pin suspended in the blood by a torsion wire, which is monitored for motion. To speed up the clot formation, a standardized amount of an activator of coagulation (e.g. kaolin, tissue factor) may be added to the cup just before the pin is placed in the cup. The TEG assay is suitable for determining important parameters in the clotting activity (clot initiation time, clot build up dynamics), clot strength (maximum amplitude (MA)) and clot degradation (fibrinolysis). The TEG system's approach to monitoring patient hemostasis is based on the premise that the end result of the hemostatic process is the clot. The clot's physical properties determine whether the patient will have normal hemostasis, or will be at increased risk for hemorrhage or thrombosis. The term “Multiplate” refers to a commercially available impedance aggregometry based whole blood platelet function analyzer employing anti-coagulated blood. The Multiplate analyzer uses a small whole blood sample in a chamber with two pairs of platinum electrodes. Standardized platelet agonists are added to the blood in the chamber to investigate specific platelet activation/signaling pathways. The Multiplate assay is based on the attachment of platelets on two platinum electrodes, resulting in an increase of electrical resistance between the electrodes.
# [9] = Healthy volunteer study, 2 hours i.v. Flolan infusion: hemodynamics; format: in vivo, human; details: eight healthy male volunteers; 4 ng/kg/min i.v. for 2 hours; any time point
# Experimental: The study was conducted investigating the influence of 2 hours i.v. Flolan® (epoprostenol sodium, prostacyclin analog) infusion at a dose of 4 ng/kg/min in eight healthy male volunteers.
# [10] = tested on: endothelial derived biomarkers; test: Healthy volunteer study, 2 hours i.v. Flolan infusion: plasma endothelial derived biomarkers by ELISA; format: in vivo, human; details: healthy volunteers, 4 ng/kg/min i.v. for 2 hours
# Experimental: The study was conducted investigating the influence of 2 hours i.v. Flolan® (epoprostenol sodium, prostacyclin analog) infusion at a dose of 4 ng/kg/min in eight healthy male volunteers. Endothelial function was evaluated in the study e.g. by measuring plasma levels of endothelial derived biomarkers by commercially available ELISA kits. Biomarkers indicating: Endothelial glycocalyx damage (syndecan-1), endothelial cell damage (thrombomodulin) or necrosis (nucleosomes, HMGB1), endothelial cell activation (PAI-1) and endothelial cell anticoagulation (protein C, antithrombin) were investigated (FIG. 2).
# [11] = Retrospective study of critically ill ICU patients on CRRT with pre-filter Flolan or heparin; format: in vivo, human; details: for 90-day mortality / 365-day mortality / platelet count during CRRT: agent given in the dialysis filter; for 30-day mortality: agent given in the dialysis filter (Flolan 5 ng/kg/min)
# Experimental: The inventors conducted a retrospective study of critically ill patients treated or not treated with prostacyclin infusion during their intensive care unit (ICU) stay [Windelov et al 2010]. Ninety-four critically ill patients admitted to the ICU for medical or surgical complications, underwent hemofiltration (continuous renal replacement therapy, CRRT) with or without concomitant Flolan® (epoprostenol sodium, prostacyclin analog) treatment. Flolan® was administered at a low dose (5 ng/kg/min) in the filters to prevent these from clotting and consequently, there was only a minor spill-over of Flolan® to the systemic circulation.
# [12] = cited from earlier work
# [13] = healthy volunteers, during infusion
# [14] = healthy volunteers, 1-4 ng/kg/min infusion
compound,measurement,setting,value
CC#CCC(C)[C@H](O)/C=C/[C@@H]1[C@H]2C/C(=C/CCCC(=O)O)C[C@H]2C[C@H]1O (stereo partly drawn) [iloprost],Multiplate or TEG vs placebo,[1],no differences
same,sE-selectin,[2],decreased significantly
same,TEG maximum clot firmness intra-operatively,"[3]; Whipple surgery patients, 1 ng/kg/min i.v.",remained stable
same,"nucleosome level, change intra- and postoperatively vs placebo",[4],increased significantly more intra- and postoperatively in placebo patients compared to iloprost patients
same,syndecan-1 level vs placebo,[4],trend towards higher levels of syndecan-1 in placebo patients compared to iloprost patients
same,"thrombomodulin level, change intra- and postoperatively vs placebo",[4],increased significantly more intra- and postoperatively in placebo patients compared to iloprost patients
same,intra- and post-operative RBC received (median),[5]; 1 ng/kg/min i.v.,0 mL
same,lactate post-operatively,[5]; 1 ng/kg/min i.v.,remained unchanged
same,post-operative hemoglobin (median),[5]; 1 ng/kg/min i.v.,6.7 mmol/L
same,volume of RBC from arrival at the post-operative ward and 6 h post-operatively,[5]; 1 ng/kg/min i.v.,0 mL
same,28-day mortality vs placebo,[5]; 1 ng/kg/min i.v. intra- and post-operative,no differences
same,bleeding events vs placebo,[6],no differences
same,hemodynamics vs placebo,[6],no differences
same,circulating level of thrombomodulin,"[7]; eight healthy male volunteers, continuing several hours after infusion",marked decrease
same,circulating level of Syndecan-1,[7]; [13],decreased
same,circulating level of protein C,[7]; [13],decreased
CCCCC[C@H](O)/C=C/[C@@H]1[C@H]2C/C(=C/CCCC(=O)O)O[C@H]2C[C@H]1O [prostacyclin],"Multiplate and TEG values, baseline vs later",whole blood hemostasis,no changes
same,clot formation and platelet aggregation,"[8]; acute critically ill patients (major abdominal surgery, PCI after AMI), 0.5-1 ng/kg/min infusion",neither influenced clot formation nor platelet aggregation
same,"hemostasis, bleeding or adverse events related to impaired hemostasis","[8]; acute critically ill patients, low-dose infusion 0.5-1 ng/kg/min",does not compromise hemostasis or induce bleeding or adverse events related to impaired hemostasis
same,platelet aggregation,"[8]; general conclusion, dose dependence",dose-dependently inhibits
same,"hemostasis, bleeding or adverse events related to impaired hemostasis","[8]; healthy volunteers and acute critically ill patients, low-dose infusion up to 4 ng/kg/min",does not compromise hemostasis or induce bleeding or adverse events related to impaired hemostasis
same,clot formation and platelet aggregation,[8]; [14],neither influenced clot formation nor platelet aggregation
same,"anti-thrombotic effects (TEG, Multiplate)",[8]; low-dose infusion,no measurable anti-thrombotic effects
same,clot formation,"[3]; patients undergoing major abdominal surgery, intra- and post-operative infusion",improved
same,blood pressure vs baseline,[9],did not change
same,heart rate vs baseline,[9],did not change
same,circulating level of PAI-1,[10],declined
same,circulating level of antithrombin,[10],decreased
same,circulating level of thrombomodulin,[10]; continuing several hours after infusion,marked decrease
same,circulating level of protein C,[10]; hours after ceasing infusion,decreased
same,90-day mortality,[11],34%
same,365-day mortality,[11],38%
same,platelet count during CRRT,[11],increased
same,30-day mortality,[11],21%
same,systolic blood pressure,"[12]; acute critically ill patients, doses from 5-10 ng/kg/min",lowers systolic blood pressure dose-dependently
same,blood pressure,[12]; [14],did not influence
same,diastolic blood pressure,"[12]; human volunteers, dose of 8 ng/kg/min",reduced
same,effect on systolic or diastolic blood pressure,"[12]; human volunteers, doses less than 8 ng/kg/min",no significant effect
same,effect on systolic blood pressure,"[12]; human volunteers, doses up to 16 ng/kg/min",no effect
same,hemodynamic effects,"[12]; low-dose infusion up to 4 ng/kg/min, healthy volunteers and acute critically ill patients",negligible
same,blood pressure,"[12]; patients with traumatic brain injury, AMI treated by PCI, septic shock or CABG surgery, 0.5-2 ng/kg/min infusion",did not negatively influence
heparin,90-day mortality,[11],53%
same,365-day mortality,[11],57%
same,platelet count during CRRT,[11],declined
same,30-day mortality,[11],39%
